Experimental data published in ChEMBL document CHEMBL1201862, “PubChem BioAssay data set” (2004).
Activity calls are given as the source filed them.

Tests used:
Caspase-7 = Caspase-7 (Homo sapiens, UniProt P55210); assay: caspase-7 enzyme inhibition, selectivity check – biochemical, DEVD-R110 fluorescence, cherry-pick, selectivity assay for caspase-6 inhibitor project, dose response (AID 743295); format: functional
Albumin = Albumin (Bos taurus, UniProt P02769); assay: Counterscreen for inhibitors of T-cell receptor (TCR)-CD3 interaction: Fluorescence-based biochemical high throughput dose response assay to identify inhibitors of T-cell receptor (TCR)-CD3 interaction using a TAMRA-labeled BSA probe.; format: functional
Caspase-6 = molecular target: T1, Caspase-6 (Homo sapiens, UniProt P55212); assay: inhibition of CASP6 peptide cleavage – biochemical, VEID-R110 fluorescence, cherry-pick, dose response (AID 720632)
T1 sequence (P55212 whole entry): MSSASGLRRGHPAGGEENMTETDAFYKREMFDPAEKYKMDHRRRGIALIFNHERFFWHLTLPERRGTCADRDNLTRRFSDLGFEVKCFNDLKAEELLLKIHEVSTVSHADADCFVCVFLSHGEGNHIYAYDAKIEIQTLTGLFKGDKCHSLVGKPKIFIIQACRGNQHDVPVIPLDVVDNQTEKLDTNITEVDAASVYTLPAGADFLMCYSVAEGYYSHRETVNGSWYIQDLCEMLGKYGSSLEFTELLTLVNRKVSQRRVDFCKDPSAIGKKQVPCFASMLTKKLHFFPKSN

cells [1] = format: functional, cell-based
cells [2] = format: functional, cell-based; remark: listed apart in the source
[3] = molecular target: T2, Trace amine-associated receptor 1 (Homo sapiens, UniProt Q96RJ0); assay: Counterscreen for agonists of the human trace amine associated receptor 1 (hTAAR1): Fluorescence-based cell-based high throughput dose response assay to identify hTAAR1 agonist that also desensitize TAAR1 receptor response.; format: functional
[4] = molecular target: T2, Trace amine-associated receptor 1; assay: Fluorescence-based cell-based high throughput dose response assay to identify agonists of the human trace amine associated receptor 1 (TAAR1).; format: functional
Major prion protein = Major prion protein (Homo sapiens, UniProt P04156); format: functional, cell-based
cells [5] = assay: cells
[6] = A549 cell cytotoxicity, dose response, cytotoxicity control, plate reader, cherry-pick, antagonist series (AID 743412); format: functional, cell-based
[7] = molecular target: Photoreceptor-specific nuclear receptor (Homo sapiens, UniProt Q9Y5X4); format: functional, cell-based;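 further: CHO-S cells with Gal4-NCOR and VP16-NR2E3 two-hybrid luciferase reporter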
[8] = toxicity toward HepG2 liver cells – cell-based, plate reader, cherry-pick, antagonist series, cytotoxicity control, dose response (AID 743416); format: functional
[9] = blockers of bursicon-stimulated LGR2 cAMP reporter – cell-based, HEK293, CRE-luciferase reporter, cherry pick, set 2, dose response (AID 743343); format: functional;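 further: transfected cells were stimulated with diluted bursicon conditioned medium after compound addition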
[10] = blockade of melanocortin 4 receptor signaling – cell-based, plate reader, cherry pick, counter-screen for LGR2 antagonist project, dose response (AID 743444); format: functional;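 further: transfected HEK 293 cells stimulated with alpha-MSH peptide; potency of inhibitors of the alpha-MSH evoked signal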
[11] = viability loss in HEK293 cells – cell-based, plate reader, cherry-picked samples, cytotoxicity control, dose response (AID 743446); format: functional
A549 = assay: viability loss in A549 cells – cell-based, plate reader, cherry-pick samples, cytotoxicity control, dose response (AID 687028); format: functional; details: Homo sapiens
[12] = molecular target: T3, Polyadenylate-binding protein 1 (Homo sapiens, UniProt P11940); assay: MLLE domain peptide-binding blockers, IC50 – biochemical, fluorescence polarization, FITC-PAM2 peptide, dose response (AID 602259); format: functional; details: read-out: IC50_Mean
[13] = molecular target: T4, Histone-lysine N-methyltransferase NSD2 (Homo sapiens, UniProt O96028); format: biochemical
T4 sequence (O96028 whole entry): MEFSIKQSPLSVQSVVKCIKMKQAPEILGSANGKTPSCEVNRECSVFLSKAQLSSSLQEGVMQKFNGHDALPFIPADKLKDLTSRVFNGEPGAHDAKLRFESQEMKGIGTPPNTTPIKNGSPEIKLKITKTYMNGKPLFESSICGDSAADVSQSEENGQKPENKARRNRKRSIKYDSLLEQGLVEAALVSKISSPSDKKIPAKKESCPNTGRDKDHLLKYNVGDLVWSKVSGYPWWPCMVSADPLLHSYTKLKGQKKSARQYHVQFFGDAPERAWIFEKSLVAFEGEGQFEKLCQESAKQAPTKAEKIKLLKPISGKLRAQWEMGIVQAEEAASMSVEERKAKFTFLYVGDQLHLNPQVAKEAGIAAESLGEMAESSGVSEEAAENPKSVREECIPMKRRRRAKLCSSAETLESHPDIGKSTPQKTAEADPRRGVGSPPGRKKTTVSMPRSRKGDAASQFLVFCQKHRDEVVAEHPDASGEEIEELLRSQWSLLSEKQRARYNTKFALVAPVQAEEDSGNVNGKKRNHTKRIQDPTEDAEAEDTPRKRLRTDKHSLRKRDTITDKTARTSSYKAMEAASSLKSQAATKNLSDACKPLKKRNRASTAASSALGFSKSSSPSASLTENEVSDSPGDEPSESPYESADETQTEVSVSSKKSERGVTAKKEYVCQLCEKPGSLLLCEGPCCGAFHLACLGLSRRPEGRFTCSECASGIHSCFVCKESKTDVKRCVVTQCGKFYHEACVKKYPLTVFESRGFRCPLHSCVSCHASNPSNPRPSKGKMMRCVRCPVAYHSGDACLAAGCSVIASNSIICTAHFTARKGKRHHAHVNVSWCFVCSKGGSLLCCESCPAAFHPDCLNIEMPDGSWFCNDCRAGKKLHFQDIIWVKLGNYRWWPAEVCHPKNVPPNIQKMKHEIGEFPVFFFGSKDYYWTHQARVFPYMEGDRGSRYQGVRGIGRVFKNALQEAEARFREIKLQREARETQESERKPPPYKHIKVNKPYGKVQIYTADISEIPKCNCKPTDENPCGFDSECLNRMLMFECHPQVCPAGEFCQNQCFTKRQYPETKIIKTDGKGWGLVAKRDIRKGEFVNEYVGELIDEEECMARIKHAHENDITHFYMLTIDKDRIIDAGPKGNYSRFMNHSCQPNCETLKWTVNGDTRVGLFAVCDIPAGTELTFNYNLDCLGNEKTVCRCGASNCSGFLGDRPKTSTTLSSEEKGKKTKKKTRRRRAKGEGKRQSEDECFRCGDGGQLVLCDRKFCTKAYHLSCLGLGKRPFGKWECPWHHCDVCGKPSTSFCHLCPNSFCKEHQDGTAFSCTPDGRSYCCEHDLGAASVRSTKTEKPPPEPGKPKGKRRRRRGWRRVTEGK

[14] = molecular target: T3, Polyadenylate-binding protein 1; assay: MLLE binding blockers, Cy5 peptide tracer – biochemical, fluorescence polarization, Cy5-PAM2 peptide, secondary, miRNA deadenylation inhibitor project, dose response (AID 602260); format: functional; details: read-out: IC50_Mean
Paired box protein Pax-8 = Paired box protein Pax-8 (Homo sapiens, UniProt Q06710); assay: PAX8 transcriptional activity inhibition in RMG-I – RMG-I cells, luciferase, cherry-pick, dose response (AID 687027); format: functional, cell-based;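 further: luciferase reporter driven by Pax8 target thyroperoxidase promoter measured by SteadyGlo luminescence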
Hexokinase HKDC1 = molecular target: T5, Hexokinase HKDC1 (Homo sapiens, UniProt Q2TB90); assay: inhibition of HKDC1 glucose phosphorylation – biochemical, W721R variant, dose response (AID 504729); format: functional
T5 sequence (Q2TB90 whole entry): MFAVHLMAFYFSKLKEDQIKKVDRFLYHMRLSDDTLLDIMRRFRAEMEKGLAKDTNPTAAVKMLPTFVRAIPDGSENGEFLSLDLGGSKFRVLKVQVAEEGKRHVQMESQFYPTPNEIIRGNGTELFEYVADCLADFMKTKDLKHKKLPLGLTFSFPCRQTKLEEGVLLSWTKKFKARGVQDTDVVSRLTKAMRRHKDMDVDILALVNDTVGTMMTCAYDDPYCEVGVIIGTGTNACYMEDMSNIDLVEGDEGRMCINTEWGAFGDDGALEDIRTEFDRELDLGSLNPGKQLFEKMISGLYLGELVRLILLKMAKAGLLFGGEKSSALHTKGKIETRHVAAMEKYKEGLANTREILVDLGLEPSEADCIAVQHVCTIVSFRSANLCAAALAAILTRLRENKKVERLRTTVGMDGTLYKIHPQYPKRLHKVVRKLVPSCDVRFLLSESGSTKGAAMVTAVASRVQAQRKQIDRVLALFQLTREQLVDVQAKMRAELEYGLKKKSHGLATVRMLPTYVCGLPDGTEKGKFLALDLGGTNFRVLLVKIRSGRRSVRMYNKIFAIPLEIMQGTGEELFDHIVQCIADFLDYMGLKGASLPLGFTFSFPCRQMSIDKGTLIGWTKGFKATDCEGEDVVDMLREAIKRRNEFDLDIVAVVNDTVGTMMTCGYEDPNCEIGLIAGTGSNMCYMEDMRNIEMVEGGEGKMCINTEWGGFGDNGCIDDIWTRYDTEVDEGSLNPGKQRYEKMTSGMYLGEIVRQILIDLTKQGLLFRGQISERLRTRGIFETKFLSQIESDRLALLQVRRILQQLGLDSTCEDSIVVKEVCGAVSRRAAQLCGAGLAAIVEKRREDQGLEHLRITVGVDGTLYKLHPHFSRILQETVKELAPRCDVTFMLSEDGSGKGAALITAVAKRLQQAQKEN

[15] = molecular target: Tyrosyl-DNA phosphodiesterase 2 (Homo sapiens, UniProt O95551); assay: potency against TDP2 phosphodiesterase activity – biochemical, epi absorbance, IC50, dose response (AID 743297)
[16] = general cell-killing toxicity readout – plate reader, dry powder samples, cytotoxicity control for PAX8 inhibitor project, dose response (AID 743021); format: functional, cell-based
cells [17] = format: functional, cell-based; remark: listed apart in the source
[18] = molecular target: T6, Nuclear receptor subfamily 0 group B member 1 (Homo sapiens, UniProt P51843); format: functional, cell-based;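 further: HEK293T cells transfected with SF-1 and DAX-1 plus StAR promoter luciferase reporter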
T6 sequence (P51843 whole entry): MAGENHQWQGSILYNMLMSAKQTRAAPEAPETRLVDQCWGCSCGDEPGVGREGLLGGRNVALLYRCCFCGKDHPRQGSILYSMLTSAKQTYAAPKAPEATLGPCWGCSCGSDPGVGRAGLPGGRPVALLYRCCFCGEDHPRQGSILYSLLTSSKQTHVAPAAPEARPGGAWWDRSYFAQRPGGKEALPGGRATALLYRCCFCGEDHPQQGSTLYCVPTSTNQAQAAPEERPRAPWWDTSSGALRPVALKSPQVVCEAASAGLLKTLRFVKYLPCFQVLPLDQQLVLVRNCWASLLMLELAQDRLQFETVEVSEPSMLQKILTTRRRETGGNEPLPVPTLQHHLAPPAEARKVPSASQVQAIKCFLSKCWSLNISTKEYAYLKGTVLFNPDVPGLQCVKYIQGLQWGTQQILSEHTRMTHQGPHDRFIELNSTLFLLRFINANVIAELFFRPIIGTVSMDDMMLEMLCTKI

Galanin receptor type 3 = Galanin receptor type 3 (Homo sapiens, UniProt O60755); assay: Fluorescence-based cell-based primary high throughput dose response assay to identify antagonists of the Galanin Receptor 3 (GalR3).; format: functional
cells [19] = format: functional, cell-based; details: HEK-CNG
[20] = viability loss in LCL cells – cell-based, plate reader, dry powder, set 2, cytotoxicity control, dose response (AID 624367); format: functional
[21] = OVCAR8 cell viability loss – plate reader, dry powder samples, PAX8 project, dose response (AID 743197); format: functional, cell-based; details: OVCAR-8
[22] = OVCAR-3 cell viability loss – plate reader, dry powder samples, PAX8 inhibitor project, dose response (AID 743044); format: functional, cell-based
[23] = blockers of HIV-1 envelope-mediated cell-cell fusion – cherry-pick, dose response (AID 652057); format: functional, cell-based
[24] = HIV-1 AD8 envelope cell-cell fusion blockers – cherry-pick, dose response (AID 652062); format: functional, cell-based;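 further: luciferase signal from cell-cell fusion driven by HIV-1 clade B AD8 Env; potency is for inhibitors of fusion seen as a drop in luminescence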
[25] = viability loss in CEM21 cells – cell-based, CellTiter-Glo luminescence, cherry-picked, cytotoxicity control for viral fusion inhibitor project, dose response (AID 652042); format: functional;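 further: potency for signal decrease meaning cytotoxicity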
Protein Wnt-3a = Protein Wnt-3a (Mus musculus, UniProt P27467); assay: SAR analysis of small molecule antagonists of Gli-SUFU in a Wnt3a luminescent reporter assay.; format: functional

O=c1c(CO)cc(CO)cc(CO)c1O
AC50 (Caspase-7): > 70 µM (inactive) | IC50 (Albumin): > 94 µM (inactive) | AC50 (Caspase-6): 2.22 µM (active)

COc1cc(C)c(NC(=O)C(S)=NCCc2ccccc2)cc1C
IC50 (cells [1]): > 29.9 µM (inactive) | EC50 (cells [2]): > 29.9 µM (inactive) | IC50 [3]: 2.38 µM (active) | EC50 [4]: 766 nM (active)

CCCc1nc(SCC(=O)NNC(=O)c2ccc(OC)cc2)c2ccccc2n1
IC50 (Major prion protein): 1.52 µM (active) | IC50 (cells [5]): > 138 µM (inactive)

Cc1cnc(NC(=O)C2CC(=O)N(c3cccc(Cl)c3)C2)s1 (stereo unspecified)
AC50 [6]: 4.65 µM (active) | IC50 [7]: 75.7 nM (active) | AC50 [8]: 763 nM (active) | AC50 [9]: 4.8 µM (active) | AC50 [10]: 5.08 µM (active) | AC50 [11]: > 52 µM (inactive) | AC50 (A549): 14.8 µM (active)

NC1=C(Br)C(=O)c2ncccc2C1=O
IC50 [12]: > 66 µM (inactive) | AC50 [13]: 164 nM (active) | IC50 [7]: 2480 nM (active) | IC50 [14]: > 66 µM (inactive) | AC50 (Paired box protein Pax-8): 1.22 µM (active) | IC50 (Hexokinase HKDC1): 8.91 µM (active) | IC50 [15]: 2.66 µM (active) | AC50 [16]: 10.1 µM (active)

CC(=O)c1sc(Nc2ccc(Oc3ccccc3)cc2)nc1C
IC50 (cells [17]): > 67.6 µM (inactive) | IC50 [18]: > 67.6 µM (inactive)

CCCCCC(O)C=CC1C(O)CC(O)C1CC=CCCCC(=O)O (stereo unspecified)
IC50 (Galanin receptor type 3): > 123 nM (active) | EC50 (cells [19]): > 29.9 µM (inactive)

O=C(Nc1ccc(C(F)(F)F)cc1)Nc1ccc2c(c1)[C@H]1C[C@@H](CC(=O)N3CCc4ccccc4C3)O[C@@H](CO)[C@H]1O2
AbsAC35 [20]: 44.28 µM | AC50 [21]: > 70 µM (inactive) | AC50 (Paired box protein Pax-8): 10.7 µM (active) | AC50 [22]: 63.1 µM (active)

COc1ccc2c3c([nH]c2c1)[C@H](CO)N(C(=O)Nc1cccc(F)c1)CC31CN(S(=O)(=O)c2cccc(C)c2)C1
AC50 [23]: 27.7 µM (active) | AC50 [24]: 38.1 µM (active) | AC50 [25]: 27.5 µM (active)

O=C(Nc1cc(N2CCCC2)ncn1)c1ccccc1
IC50 (Protein Wnt-3a): > 21.8 µM (inactive)
